This note sets out measurements from the supplement of paper PMC10307832.

Assay in all cases: relative viability (nuclei count vs DMSO), 5 days (fraction); higher = more cells survive
Compound in assay [1]: COc1ncc(-c2ccc3nccc(-c4ccnnc4)c3c2)cc1NS(=O)(=O)c1ccc(F)cc1F [Omipalisib] + CC(=O)Nc1cccc(-n2c(=O)n(C3CC3)c(=O)c3c(Nc4ccc(I)cc4F)n(C)c(=O)c(C)c32)c1 [Trametinib] (partner 0.02 µM)
Put shortly:
(§1)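 Relative viability equals treated-well nuclei counts divided by vehicle-well nuclei counts. Counts came from 4× images of lung cancer cell lines grown in 1536-well plates for 5 days after pin-tool dosing on the day after seeding. Dosing used one drug alone or a fixed anchor-drug dose plus five library-drug doses (not always all listed) in √10 steps, and values are medians of duplicate plates.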

Compound in assay [2]: COc1ncc(-c2ccc3nccc(-c4ccnnc4)c3c2)cc1NS(=O)(=O)c1ccc(F)cc1F [Omipalisib] + CC(C)C[C@H](NC(=O)[C@H](Cc1ccccc1)NC(=O)c1cnccn1)B(O)O [Bortezomib] (partner 0.002 µM)
Put shortly:
as §1

Compound in assay [3]: COc1ncc(-c2ccc3nccc(-c4ccnnc4)c3c2)cc1NS(=O)(=O)c1ccc(F)cc1F [Omipalisib] + COc1cc2c(Oc3ccc(NC(=O)C4(C(=O)Nc5ccc(F)cc5)CC4)cc3F)ccnc2cc1OCCCN1CCOCC1 [Foretinib] (partner 0.25 µM)
In short, it runs like this:
as §1

Compound in assay [4]: COc1ncc(-c2ccc3nccc(-c4ccnnc4)c3c2)cc1NS(=O)(=O)c1ccc(F)cc1F [Omipalisib] + COc1cccc2cc(-c3nc([C@H]4CC[C@H](C(=O)O)CC4)n4ncnc(N)c34)[nH]c12 [OSI-027] (partner 0.5 µM)
Put shortly: as §1

Compound in assay [5]: COc1ncc(-c2ccc3nccc(-c4ccnnc4)c3c2)cc1NS(=O)(=O)c1ccc(F)cc1F [Omipalisib] + CS(=O)(=O)CCNCc1ccc(-c2ccc3ncnc(Nc4ccc(OCc5cccc(F)c5)c(Cl)c4)c3c2)o1 [Lapatinib] (partner 2 µM)
In short, it runs like this: as §1

Compound in assay [6]: COc1ncc(-c2ccc3nccc(-c4ccnnc4)c3c2)cc1NS(=O)(=O)c1ccc(F)cc1F [Omipalisib] + Cc1nc(NC(=O)N2CCC[C@H]2C(N)=O)sc1-c1ccnc(C(C)(C)C(F)(F)F)c1 [Alpelisib] (partner 2 µM)
Put shortly:
as §1

As for NCI-H1437, the relative viability in assay [1] (first compound 0.0003 µM) was 0.583; in assay [1] (first compound 0.003 µM) it was 0.31; in assay [1] (first compound 0.03 µM), 0.209; in assay [2] (first compound 0.0003 µM) it was 0.463; in assay [2] (first compound 0.003 µM), 0.465; in assay [2] (first compound 0.03 µM), 0.227. Besides, the relative viability in assay [3] (first compound 0.0003 µM) stood at 1.26; in assay [3] (first compound 0.003 µM) it was 1.35; in assay [3] (first compound 0.03 µM), 0.918; in assay [4] (first compound 0.0003 µM), 0.854; in assay [4] (first compound 0.003 µM), 0.639; in assay [4] (first compound 0.03 µM), 0.323. Further, the relative viability in assay [5] (first compound 0.0003 µM) is 0.795; in assay [5] (first compound 0.003 µM), 0.55; in assay [5] (first compound 0.03 µM), 0.308; in assay [6] (first compound 0.0003 µM) it was 0.92; in assay [6] (first compound 0.003 µM), 0.707; in assay [6] (first compound 0.03 µM), 0.45.

In the case of RERF-LC-KJ, the relative viability in assay [1] (first compound 0.0003 µM) was determined as 0.769; in assay [1] (first compound 0.003 µM), 0.635; in assay [1] (first compound 0.03 µM) it was 0.413; in assay [2] (first compound 0.0003 µM), 1.1; in assay [2] (first compound 0.003 µM) it was 0.795; in assay [2] (first compound 0.03 µM) it was 0.664. Moreover, the relative viability in assay [3] (first compound 0.0003 µM) came out at 0.786; in assay [3] (first compound 0.003 µM) it was 0.58; in assay [3] (first compound 0.03 µM), 0.594; in assay [4] (first compound 0.0003 µM) it was 0.524; in assay [4] (first compound 0.003 µM), 0.423; in assay [4] (first compound 0.03 µM) it was 0.367. Besides, the relative viability in assay [5] (first compound 0.0003 µM) was determined as 0.773; in assay [5] (first compound 0.003 µM), 0.572; in assay [5] (first compound 0.03 µM) it was 0.632; in assay [6] (first compound 0.0003 µM), 0.865; in assay [6] (first compound 0.003 µM), 0.583; in assay [6] (first compound 0.03 µM), 0.627.

Take NCI-H1793: the relative viability in assay [1] (first compound 0.0003 µM) amounted to 0.375; in assay [1] (first compound 0.003 µM), 0.334; in assay [1] (first compound 0.03 µM), 0.194; in assay [3] (first compound 0.0003 µM) it was 0.559; in assay [3] (first compound 0.003 µM) it was 0.399; in assay [3] (first compound 0.03 µM), 0.244. The relative viability in assay [4] (first compound 0.0003 µM) is 0.261; in assay [4] (first compound 0.003 µM), 0.183; in assay [4] (first compound 0.03 µM) it was 0.168; in assay [5] (first compound 0.0003 µM) it was 0.614; in assay [5] (first compound 0.003 µM), 0.425; in assay [5] (first compound 0.03 µM), 0.214. Also, the relative viability was 0.577 in assay [6] (first compound 0.0003 µM), 0.435 in assay [6] (first compound 0.003 µM) and 0.292 in assay [6] (first compound 0.03 µM).

On to NCI-H1944, for which the relative viability in assay [1] (first compound 0.0003 µM) stood at 0.355; in assay [1] (first compound 0.003 µM), 0.246; in assay [1] (first compound 0.03 µM) it was 0.197; in assay [3] (first compound 0.0003 µM), 0.811; in assay [3] (first compound 0.003 µM), 0.457; in assay [3] (first compound 0.03 µM) it was 0.31. Moreover, the relative viability came out at 0.396 in assay [4] (first compound 0.0003 µM); 0.256 in assay [4] (first compound 0.003 µM); 0.201 in assay [4] (first compound 0.03 µM); 0.785 in assay [5] (first compound 0.0003 µM); 0.493 in assay [5] (first compound 0.003 µM); 0.385 in assay [5] (first compound 0.03 µM). Moreover, the figures for the relative viability in assay [6] (first compound 0.0003 µM), in assay [6] (first compound 0.003 µM) and in assay [6] (first compound 0.03 µM) were 0.884, 0.638 and 0.441, respectively.

As for NCI-H2170, the relative viability in assay [1] (first compound 0.0003 µM) is 0.801; in assay [1] (first compound 0.003 µM), 0.545; in assay [1] (first compound 0.03 µM) it was 0.303; in assay [3] (first compound 0.0003 µM) it was 0.945; in assay [3] (first compound 0.003 µM), 0.565; in assay [3] (first compound 0.03 µM), 0.565. The relative viability was 0.656 in assay [4] (first compound 0.0003 µM); 0.475 in assay [4] (first compound 0.003 µM); 0.485 in assay [4] (first compound 0.03 µM); 0.221 in assay [5] (first compound 0.0003 µM); 0.257 in assay [5] (first compound 0.003 µM); 0.257 in assay [5] (first compound 0.03 µM). Besides, the relative viability in assay [6] (first compound 0.0003 µM) turned out to be 0.704; in assay [6] (first compound 0.003 µM), 0.643; in assay [6] (first compound 0.03 µM), 0.484.

ChaGo-K-1: the relative viability in assay [1] (first compound 0.0003 µM) came to 0.818; in assay [1] (first compound 0.003 µM), 0.747; in assay [1] (first compound 0.03 µM), 0.666; in assay [2] (first compound 0.0003 µM) it was 1.06; in assay [2] (first compound 0.003 µM), 0.993; in assay [2] (first compound 0.03 µM) it was 1.04. Further, the relative viability in assay [3] (first compound 0.0003 µM) is 0.852; in assay [3] (first compound 0.003 µM), 0.75; in assay [3] (first compound 0.03 µM) it was 0.715; in assay [4] (first compound 0.0003 µM), 0.557; in assay [4] (first compound 0.003 µM) it was 0.374; in assay [4] (first compound 0.03 µM), 0.421.

Regarding NCI-H1650, the relative viability in assay [1] (first compound 0.0003 µM) was 0.438; in assay [1] (first compound 0.003 µM) it was 0.633; in assay [1] (first compound 0.03 µM), 0.512; in assay [2] (first compound 0.0003 µM) it was 0.197; in assay [2] (first compound 0.003 µM), 0.184; in assay [2] (first compound 0.03 µM) it was 0.2. Also, the relative viability in assay [3] (first compound 0.0003 µM) stood at 1.19; in assay [3] (first compound 0.003 µM), 0.968; in assay [3] (first compound 0.03 µM) it was 0.656; in assay [4] (first compound 0.0003 µM), 0.717; in assay [4] (first compound 0.003 µM), 0.413; in assay [4] (first compound 0.03 µM), 0.259. Further, the relative viability came to 0.771 in assay [5] (first compound 0.0003 µM), 0.771 in assay [5] (first compound 0.003 µM) and 0.576 in assay [5] (first compound 0.03 µM).

For LK-2, the relative viability came to 0.595 in assay [1] (first compound 0.0003 µM); 0.4 in assay [1] (first compound 0.003 µM); 0.201 in assay [1] (first compound 0.03 µM); 0.832 in assay [3] (first compound 0.0003 µM); 0.553 in assay [3] (first compound 0.003 µM); 0.484 in assay [3] (first compound 0.03 µM). In addition, the relative viability in assay [4] (first compound 0.0003 µM) came out at 0.212; in assay [4] (first compound 0.003 µM), 0.13; in assay [4] (first compound 0.03 µM), 0.173; in assay [5] (first compound 0.0003 µM) it was 0.698; in assay [5] (first compound 0.003 µM), 0.502; in assay [5] (first compound 0.03 µM) it was 0.306. The relative viability worked out at 0.962 in assay [6] (first compound 0.0003 µM), 0.608 in assay [6] (first compound 0.003 µM) and 0.521 in assay [6] (first compound 0.03 µM).

Consider HCC-44, for which the relative viability in assay [1] (first compound 0.0003 µM) worked out at 0.983; in assay [1] (first compound 0.003 µM), 0.921; in assay [1] (first compound 0.03 µM) it was 0.468; in assay [2] (first compound 0.0003 µM), 0.874; in assay [2] (first compound 0.003 µM), 0.694; in assay [2] (first compound 0.03 µM), 0.513. Moreover, the relative viability in assay [4] (first compound 0.0003 µM) stood at 0.524; in assay [4] (first compound 0.003 µM), 0.344; in assay [4] (first compound 0.03 µM), 0.338; in assay [5] (first compound 0.0003 µM), 1.09; in assay [5] (first compound 0.003 µM) it was 0.96; in assay [5] (first compound 0.03 µM) it was 0.432. The relative viability in assay [6] (first compound 0.0003 µM) worked out at 0.742; in assay [6] (first compound 0.003 µM), 0.619; in assay [6] (first compound 0.03 µM), 0.29.

As for SW 900, the relative viability in assay [1] (first compound 0.0003 µM) amounted to 0.625; in assay [1] (first compound 0.003 µM), 0.915; in assay [1] (first compound 0.03 µM) it was 0.396; in assay [3] (first compound 0.0003 µM), 0.888; in assay [3] (first compound 0.003 µM), 0.691; in assay [3] (first compound 0.03 µM) it was 0.622. Further, the values for the relative viability in assay [4] (first compound 0.0003 µM), in assay [4] (first compound 0.003 µM) and in assay [4] (first compound 0.03 µM) were 0.573, 0.495 and 0.306, respectively.
